Measured values published in patent publication US11986450B2, “Methods and compositions for treating infection and inflammation with selenocyanate” (National Jewish Health, priority 2017, dated 2024).

Test system: Human bronchial epithelial (16HBE) cells
Test: HOSCN reductase activity
Settings: human 16HBE cells

Structure (SMILES): N#CSO [HOSCN, hypothiocyanite]
- Apparent Vmax (HOSCN reductase activity): 14.7 ± 1.0 nmol/mg/min
